Data: ChEMBL document CHEMBL2074529, “Increased sensitivity to gemcitabine of P-glycoprotein and multidrug resistance-associated protein-overexpressing human cancer cell lines” (Br J Cancer, 2003)

Assays:
Format in all cases: functional, cell-based
[1] = molecular target: T1, ATP-dependent translocase ABCB1 (Homo sapiens, UniProt P08183); experiment: TP_TRANSPORTER: drug resistance in MDR1-expressing BROmdr cells
[2] = molecular target: T1, ATP-dependent translocase ABCB1; experiment: TP_TRANSPORTER: drug resistance in […]-expressing SWI573/SI(I.I) cells
[3] = molecular target: T1, ATP-dependent translocase ABCB1; experiment: TP_TRANSPORTER: drug resistance in 2RI60 cells
[4] = molecular target: T1, ATP-dependent translocase ABCB1; experiment: TP_TRANSPORTER: drug resistance in 2780AD cells

Measured: Activity

T1 sequence (P08183 whole entry): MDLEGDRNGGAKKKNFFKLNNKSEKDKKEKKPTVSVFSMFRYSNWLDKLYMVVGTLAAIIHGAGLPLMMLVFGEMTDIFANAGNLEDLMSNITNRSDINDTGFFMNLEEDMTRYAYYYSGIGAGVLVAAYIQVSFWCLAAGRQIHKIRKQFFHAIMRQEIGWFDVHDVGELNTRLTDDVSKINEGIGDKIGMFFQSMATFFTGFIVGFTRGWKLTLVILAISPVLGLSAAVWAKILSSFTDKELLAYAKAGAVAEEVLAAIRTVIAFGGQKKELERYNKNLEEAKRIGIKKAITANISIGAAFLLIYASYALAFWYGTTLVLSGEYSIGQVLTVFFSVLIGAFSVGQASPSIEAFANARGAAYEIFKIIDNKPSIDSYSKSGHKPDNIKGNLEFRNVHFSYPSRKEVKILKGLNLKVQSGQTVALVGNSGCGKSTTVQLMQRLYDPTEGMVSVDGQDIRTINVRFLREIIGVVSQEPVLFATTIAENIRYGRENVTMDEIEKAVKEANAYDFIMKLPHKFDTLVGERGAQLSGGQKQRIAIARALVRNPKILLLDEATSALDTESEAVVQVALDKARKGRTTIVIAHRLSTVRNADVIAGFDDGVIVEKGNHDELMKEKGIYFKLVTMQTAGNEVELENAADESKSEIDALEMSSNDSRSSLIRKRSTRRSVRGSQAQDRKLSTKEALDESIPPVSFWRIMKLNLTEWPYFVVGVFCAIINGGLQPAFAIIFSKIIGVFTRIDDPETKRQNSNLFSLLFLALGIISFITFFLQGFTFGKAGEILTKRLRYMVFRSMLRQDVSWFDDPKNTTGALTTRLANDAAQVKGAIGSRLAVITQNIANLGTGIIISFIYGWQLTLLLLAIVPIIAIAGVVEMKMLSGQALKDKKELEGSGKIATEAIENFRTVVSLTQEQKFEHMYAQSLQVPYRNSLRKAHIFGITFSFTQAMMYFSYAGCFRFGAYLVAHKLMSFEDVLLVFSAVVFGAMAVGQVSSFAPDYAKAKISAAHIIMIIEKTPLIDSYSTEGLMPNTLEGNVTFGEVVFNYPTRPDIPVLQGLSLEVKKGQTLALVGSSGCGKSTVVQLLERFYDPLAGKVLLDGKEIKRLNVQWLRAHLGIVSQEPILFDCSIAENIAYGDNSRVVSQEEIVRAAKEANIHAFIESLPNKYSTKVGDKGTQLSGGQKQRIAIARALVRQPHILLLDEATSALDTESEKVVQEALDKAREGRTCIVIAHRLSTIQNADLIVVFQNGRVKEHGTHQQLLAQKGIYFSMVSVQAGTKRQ

Nc1ccn([C@@H]2O[C@H](CO)[C@@H](O)C2(F)F)c(=O)n1 [GEMCITABINE]
substrate [+]: all assays above
